Results published in patent US9999659B2, “Treatments using a peptide and/or vaccine” (AFFIRIS AG, priority 2012, dated 2018).

How the values were obtained:
[1] = system: polyclonal antibodies in mouse sera raised against original PCSK9 sequence (aa 153-162 or aa 153-165); assay: Competition ELISA: mimotope competes with the original PCSK9 sequence for binding of polyclonal antibodies in mouse sera; conditions: 20 μg peptide incubated with sera; irrelevant peptide = 0% competition
From the text: FIGS. 2A and 2B show the ability of PCSK9 mimotopes to compete with the original PCSK9 sequence (aa 153-162 or aa 153-165) for binding polyclonal antibodies in mouse sera raised specifically against the latter.
All mimotopes are compared to the negative group (0% competition by an irrelevant peptide). As a positive control for each competition ELISA the original PCSK9 sequences were used (aa 153-162 or aa 153-165).
The graphs display the ability (in percent) of the mimotopes to compete with the original PCSK9 sequence (aa 153-162 or aa 153-165) for binding polyclonal antibodies raised against the latter.
20 μg of each indicated peptide was incubated with sera from mice injected with original PCSK9 sequence (aa 153-162 or aa 153-165: SEQ ID No. 2). Sera were then incubated on ELISA plates coated with the original PCSK9 sequence (aa 153-162 or aa 153-165: SEQ ID No. 2). Detection was performed with anti-mouse IgG antibodies, ABTS was used as a chromogenic substrate and optical density (OD) was measured at 405 nm.
Mimotopes diminishing >20% subsequent binding of the polyclonal antibodies from the sera to the original human PCSK9 epitope (aa 153-162 or 153-165: SEQ ID No. 3) coated on the ELISA plates were considered as competing mimotopes and as good candidates.

[2] = system: polyclonal antibodies specific for human PCSK9 aa 153-162 or aa 153-165; assay: Binding ELISA: mimotopes coated on plates, detected by mouse sera raised against the original PCSK9 sequence; conditions: mimotope coated at 1 μmol/mL; titer = serum dilution where 50% of ODmax is reached
From the text: FIGS. 1A and 1B show detection of PCSK9 mimotopes sequences by mouse sera containing polyclonal antibodies specific for human PCSK9 aa 153-162 or aa 153-165
The graphs display median titers from all mimotopes compared to the irrelevant negative control. As a positive control the original human PCSK9 sequence is included: aa 153-162 or aa 153-165. Mimotopes with values over 1:50.000 are considered as good candidates.
Mimotopes were coated on ELISA plates at a concentration of 1 μmol/mL. After blocking unspecific binding (1% BSA in PBS) appropriate dilutions of sera from mice injected with the original human PCSK9 sequence aa 153-162 or aa 153-165 (SEQ ID No. 3) were added and incubated for approximately 1 hour. Subsequently, detection with anti-mouse IgG antibodies was performed. ABTS was used as substrate. OD measurements were performed at 405 nm and titers were defined as the dilution of the serum where 50% of the ODmax is reached.

Substance | % Competition compared to the related control group [1] [%] | Median Titer Binding ELISA (ODmax/2) [2]
61 (SQPWNLERLT; Artificial Sequence, Mimotope) [compound 61] | 69 | 200,000
64 (SIPWSLERLT; Artificial Sequence, Mimotope) [compound 64] | 46 | 164,000
58 (SVPWNLERTT; Artificial Sequence, Mimotope) [compound 58] | 73 | 116,000
40 (SIPWNLERIQ; Artificial Sequence, Mimotope) [compound 40] | 64 | 181,000
7 (AIPWNLERIT; Artificial Sequence, Mimotope) [compound 7] | 88 | 199,000
18 (SIPHNLERIT; Artificial Sequence, Mimotope) [compound 18] | 0 | 23,000
66 (SIPWSLERIL; Artificial Sequence, Mimotope) [compound 66] | 46 | 199,000
48 (SIPWNLERITPNR; Artificial Sequence, Mimotope) [compound 48] | 70 | 186,000
55 (VIPWNLERIL; Artificial Sequence, Mimotope) [compound 55] | 49 | 173,000
47 (SIPWNLERITPTR; Artificial Sequence, Mimotope) [compound 47] | 73 | 155,000
42 (SIPWNLERISPPR; Artificial Sequence, Mimotope) [compound 42] | 79 | 719,000
34 (SIPWNLEAIT; Artificial Sequence, Mimotope) [compound 34] | 15 | 54,000
54 (VIPWNLERTT; Artificial Sequence, Mimotope) [compound 54] | 69 | 162,000
15 (SIPFNLERIT; Artificial Sequence, Mimotope) [compound 15] | 15 | 42,000
38 (SIPWNLERAT; Artificial Sequence, Mimotope) [compound 38] | 77 | 149,000
59 (SVPWNLERIL; Artificial Sequence, Mimotope) [compound 59] | 59 | 188,000
14 (SIVWNLERITPPR; Artificial Sequence, Mimotope) [compound 14] | 78 | 146,000
60 (SVPWNLERIQ; Artificial Sequence, Mimotope) [compound 60] | 61 | 222,000
73 (SVPWSLERLT; Artificial Sequence, Mimotope) [compound 73] | 74 | 251,000
16 (SIPANLERIT; Artificial Sequence, Mimotope) [compound 16] | 8 | 22,000
22 (SIPWALERIT; Artificial Sequence, Mimotope) [compound 22] | 75 | 157,000
5 (TIPWNLERIT; Artificial Sequence, Mimotope) [compound 5] | 52 | 198,000
46 (SIPWNLERITPVR; Artificial Sequence, Mimotope) [compound 46] | 75 | 265,000
37 (SIPWNLERTT; Artificial Sequence, Mimotope) [compound 37] | 73 | 177,000

Substance | % Competition compared to the related control group [1] [%] | Median Titer Binding ELISA (ODmax/2) [2]
52 (SIPWNLERITPPL; Artificial Sequence, Mimotope) [compound 52] | 66 | 139,000
9 (SQPWNLERIT; Artificial Sequence, Mimotope) [compound 9] | 30 | 149,000
3 (ERTKSDPGAQHREF) [compound 3] | 0 | –
13 (SIAWNLERIT; Artificial Sequence, Mimotope) [compound 13] | 78 | 147,000
11 (SGPWNLERITPPR; Artificial Sequence, Mimotope) [compound 11] | 54 | 81,000
56 (VIPWNLERIQ; Artificial Sequence, Mimotope) [compound 56] | 47 | 166,000
36 (SIPWNLERLT; Artificial Sequence, Mimotope) [compound 36] | 76 | 192,000
67 (SIPWSLERIQ; Artificial Sequence, Mimotope) [compound 67] | 44 | 223,000
71 (VQPWNLERLQ; Artificial Sequence, Mimotope) [compound 71] | 72 | 184,000
65 (SIPWSLERTT; Artificial Sequence, Mimotope) [compound 65] | 64 | 147,000
63 (SQPWNLERIQ; Artificial Sequence, Mimotope) [compound 63] | 66 | 167,000
49 (SIPWNLERITPPA; Artificial Sequence, Mimotope) [compound 49] | 65 | 163,000
29 (SIPWNFERITPPR; Artificial Sequence, Mimotope) [compound 29] | 79 | 186,000
12 (SITWNLERIT; Artificial Sequence, Mimotope) [compound 12] | 62 | 124,000
43 (SIPWNLERITAPR; Artificial Sequence, Mimotope) [compound 43] | 70 | 226,000
44 (SIPWNLERITSPR; Artificial Sequence, Mimotope) [compound 44] | 68 | 153,000
24 (SIPWDLERITPPR; Artificial Sequence, Mimotope) [compound 24] | 74 | 231,000
33 (SIPWNLEKIT; Artificial Sequence, Mimotope) [compound 33] | 19 | 59,000
10 (SAPWNLERIT; Artificial Sequence, Mimotope) [compound 10] | 76 | 131,000
27 (SIPWNYERIT; Artificial Sequence, Mimotope) [compound 27] | 76 | 115,000
39 (SIPWNLERIL; Artificial Sequence, Mimotope) [compound 39] | 56 | 168,000
57 (SVPWNLERLT; Artificial Sequence, Mimotope) [compound 57] | 57 | 154,000
20 (SIPSNLERIT; Artificial Sequence, Mimotope) [compound 20] | 7 | 22,000
4 (ITELSRWPNI) [compound 4] | 0 | –
